# Source: patent US4504462A, “Process for making a lyophilized product for use in skeletal imaging” (Mallinckrodt, Inc., priority 1982, dated 1985)
# Experiment: skeletal imaging with scintillation camera
# Type: in vivo, adult human subject
# Conditions: component substituted in the kit of Example 1 or Example II; compared with the original kit
# Method: An imaging agent is prepared using this kit by adding about 5 ml of a pertechnetate-Tc99m physiological saline with an activity of about 75 mCi, from a commercial technetium source. The kit is agitated until the kit components are dissolved. About 1 ml of the agent is slowly injected, over a period of about 30 seconds, into an adult human subject weighing about 75 kg.
row,Compound,results when substituted in the kit
1,"CNC(P(=O)(O)O)P(=O)(O)O [methane-N-methylaminodiphosphonic acid, reference compound]",substantially similar results
2,O=C([O-])[C@H](O)[C@@H](O)C(=O)[O-].[Sn+2] [stannous tartrate],substantially similar results
3,O=S(=O)([O-])[O-].[Sn+2] [stannous sulfate],substantially similar results
4,O=C1CCC(O)=C1O [reductic acid],substantially similar results
5,O=C1O[C@H]([C@@H](O)CBr)C(O)=C1O [6-bromo-6-deoxyascorbic acid],substantially similar results
6,"CN(C)C(P(=O)(O)O)P(=O)(O)O [methane-N,N-dimethylaminodiphosphonic acid, reference compound]",substantially similar results
7,O=C1O[C@H]([C@H](O)CO)C(O)=C1O [erythorbic acid],substantially similar results
8,O=C1O[C@H]([C@@H](O)CCl)C(O)=C1O [6-chloro-6-deoxyascorbic acid],substantially similar results
9,O=C1O[C@H]([C@@H](O)CO)C([O-])=C1O.[Na+] [sodium ascorbate],substantially similar results
10,CC1CC(O)=C(O)C1=O (stereo not drawn) [5-methyl reductic acid],substantially similar results
11,O=C1O[C@H]([C@@H](O)CCl)C([O-])=C1O.[Na+] [sodium-6-chloro-6-deoxyascorbate],substantially similar results
12,"O=P(O)(O)CP(=O)(O)O [MDP, methanediphosphonic acid, reference compound]",substantially similar results
13,"CC(O)(P(=O)(O)O)P(=O)(O)O [EHDP, ethane-1-hydroxy-1,1-diphosphonic acid, reference compound]",substantially similar results
14,O=C1O[C@H]([C@@H](O)CBr)C([O-])=C1O.[Na+] [sodium-6-bromo-6-deoxyascorbate],substantially similar results
15,"NC(P(=O)(O)O)P(=O)(O)O [methaneaminodiphosphonic acid, reference compound]",substantially similar results
16,"O=P(O)(O)C(O)P(=O)(O)O [HMDP, methanehydroxydiphosphonic acid, reference compound]",substantially similar results
17,"NCC(O)(P(=O)(O)O)P(=O)(O)O [ethane-1-hydroxy-2-amino-1,1-diphosphonic acid, reference compound]",substantially similar results

# Same assay, conditions: in vivo
row,Compound,results when substituted in the kit
1,stannous fluoride,substantially similar results
